Experimental data from US20170022171A1, “2,5-DISUBSTITUTED CYCLOPENTANECARBOXYLIC ACIDS AND THEIR USE” (Bayer Pharma Aktiengesellschaft, priority 2014, published 2017).

What was measured:
Type in all cases: biochemical
mouse MMP-3 = target: T1, mouse MMP-3 (Mus musculus, UniProt P28862); assay: In vitro mouse MMP-3 inhibition test
T1 construct: purchased R&D Systems 548-MP
Text: (§1) The MMP-mediated amidolytic cleavage of a suitable peptide substrate leads to an increase in fluorescent light here too. The signal intensity of the fluorescent light is directly proportional to the enzyme activity. The active concentration of a test compound at which half the enzyme is inhibited (50% signal intensity of the fluorescent light) is reported as the IC50 value.
(§2) Recombinant mouse MMP-3 (from R&D Systems, 548-MP) is chemically activated in accordance with the manufacturer's instructions using APMA. 1 μl of the test compound to be analysed (as a solution in DMSO, suitable concentrations, for example, 1 nM to 30 μM) is pipetted into 24 μl of activated enzyme (final concentration, for example, 0.5 nM) in reaction buffer (50 mM Tris/HCl pH 7.5, 10 mM CaCl2, 150 mM NaCl, 0.05% Brij®-35) in a white 384-hole microtiter plate (MTP). The enzymatic reaction is started by adding the intramolecularly quenched Mca-Arg-Pro-Lys-Pro-Val-Glu-Nval-Trp-Arg-Lys(Dnp)-NH2 substrate (final concentration, for example, 5 μM; R&D Systems, ES-002), so as to result in a total test volume of 50 μl. The course of the MMP-3 reaction is measured by measuring the fluorescence intensity (excitation 320 nm, emission 410 nm) over a suitable period of time (for example over 120 min at a temperature of 32° C.).

mouse MMP-7 = target: T2, mouse MMP-7 (Mus musculus, UniProt Q10738); assay: In vitro mouse MMP-7 inhibition test
T2 construct: purchased R&D Systems 2967-MP
T2 sequence (Q10738 95-264): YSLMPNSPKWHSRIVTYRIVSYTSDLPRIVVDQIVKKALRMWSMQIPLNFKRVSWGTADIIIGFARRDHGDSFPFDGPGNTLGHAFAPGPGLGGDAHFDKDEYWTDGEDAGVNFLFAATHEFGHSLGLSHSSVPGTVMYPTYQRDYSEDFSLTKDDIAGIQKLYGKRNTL
Text: as §1
as §2, with “MMP-7” for “MMP-3”, “2967-MP)” for “548-MP)”, “Mca-Lys-Pro-Leu-Gly-Leu-Dpa(Dnp)-Ala-Arg-NH2” for “Mca-Arg-Pro-Lys-Pro-Val-Glu-Nval-Trp-Arg-Lys(Dnp)-NH2”, “ES-010),” for “ES-002),”

mouse MMP-8 = target: T3, mouse MMP-8 (Mus musculus, UniProt O70138); assay: In vitro mouse MMP-8 inhibition test
T3 construct: purchased R&D Systems 2904-MP
Text: as §1
as §2, with “MMP-8” for “MMP-3”, “2904-MP)” for “548-MP)”, “2” for “0.5”, “Mca-Lys-Pro-Leu-Gly-Leu-Dpa(Dnp)-Ala-Arg-NH2” for “Mca-Arg-Pro-Lys-Pro-Val-Glu-Nval-Trp-Arg-Lys(Dnp)-NH2”, “ES-010),” for “ES-002),”

mouse MMP-12 = target: T4, mouse MMP-12 (Mus musculus, UniProt P34960); assay: In vitro mouse MMP-12 inhibition test (standard or high-sensitivity)
T4 construct: purchased R&D Systems 3467-MP
Text: as §1
Recombinant mouse MMP-12 (from R&D Systems, 3467-MP) is autocatalytically activated in accordance with the manufacturer's instructions. 1 μl of the test compound to be analysed (as a solution in DMSO, suitable concentrations, for example, 1 nM to 30 μM) is pipetted into 24 μl of activated enzyme (final concentration, for example, 1 nM) in reaction buffer (50 mM Tris/HCl pH 7.5, 10 mM CaCl2, 150 mM NaCl, 0.05% Brij®-35) in a white 384-hole microtiter plate (MTP). The enzymatic reaction is started by adding the intramolecularly quenched Mca-Lys-Pro-Leu-Gly-Leu-Dpa(Dnp)-Ala-Arg-NH2 substrate (final concentration, for example, 5 μM; R&D Systems, ES-010), so as to result in a total test volume of 50 The course of the MMP-12 reaction is measured by measuring the fluorescence intensity (excitation 320 nm, emission 410 nm) over a suitable period of time (for example over 120 min at a temperature of 32° C.).
In this case, an enzyme concentration ten times lower is used (final concentration, for example, 0.1 nM) in order to achieve an elevated test sensitivity. The incubation period chosen for the test is correspondingly longer (for example 16 hours).

T3 sequence (O70138 101-465): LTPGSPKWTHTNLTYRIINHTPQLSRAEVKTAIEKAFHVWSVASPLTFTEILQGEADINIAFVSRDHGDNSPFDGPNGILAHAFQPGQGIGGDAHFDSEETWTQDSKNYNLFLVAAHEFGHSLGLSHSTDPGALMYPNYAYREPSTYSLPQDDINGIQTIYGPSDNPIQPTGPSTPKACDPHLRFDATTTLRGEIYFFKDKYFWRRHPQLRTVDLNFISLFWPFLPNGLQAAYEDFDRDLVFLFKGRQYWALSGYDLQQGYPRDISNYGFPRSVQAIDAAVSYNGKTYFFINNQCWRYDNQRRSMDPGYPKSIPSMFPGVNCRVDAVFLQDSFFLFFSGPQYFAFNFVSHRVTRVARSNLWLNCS
T4 sequence (P34960 110-473): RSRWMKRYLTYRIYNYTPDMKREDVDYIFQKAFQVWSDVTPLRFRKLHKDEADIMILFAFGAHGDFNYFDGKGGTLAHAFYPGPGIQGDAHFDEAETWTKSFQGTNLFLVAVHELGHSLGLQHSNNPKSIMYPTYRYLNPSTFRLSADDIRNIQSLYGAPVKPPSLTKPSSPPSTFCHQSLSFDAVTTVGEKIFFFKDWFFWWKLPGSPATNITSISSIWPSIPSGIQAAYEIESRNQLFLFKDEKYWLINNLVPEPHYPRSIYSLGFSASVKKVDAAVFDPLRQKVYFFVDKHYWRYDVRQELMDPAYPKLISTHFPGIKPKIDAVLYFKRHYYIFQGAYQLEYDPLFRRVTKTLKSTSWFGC
T1 sequence (P28862 100-477): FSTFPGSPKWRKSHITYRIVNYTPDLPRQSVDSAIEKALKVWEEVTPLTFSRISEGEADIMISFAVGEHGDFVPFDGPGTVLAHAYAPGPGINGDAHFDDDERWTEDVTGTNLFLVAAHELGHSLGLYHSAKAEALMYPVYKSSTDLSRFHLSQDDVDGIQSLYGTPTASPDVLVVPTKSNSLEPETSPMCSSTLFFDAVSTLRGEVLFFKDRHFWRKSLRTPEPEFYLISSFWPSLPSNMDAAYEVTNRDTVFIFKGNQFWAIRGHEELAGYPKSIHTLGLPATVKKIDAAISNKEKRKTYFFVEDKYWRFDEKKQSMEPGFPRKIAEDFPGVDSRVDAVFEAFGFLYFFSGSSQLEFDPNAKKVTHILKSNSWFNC

| Structure (SMILES) | IC50 (mouse MMP-3) [nM] | IC50 (mouse MMP-7) [nM] | IC50 (mouse MMP-8) [nM] | IC50 (mouse MMP-12) [nM] |
| --- | --- | --- | --- | --- |
| O=C(O)[C@H]1[C@H](Cn2nnc3ccccc3c2=O)CC[C@@H]1C(=O)c1ccc(OCc2ccc(F)cc2)cc1 (racemic) [Example 1, (+/−)-(1RS,2RS,5SR)-2-{4-[(4-Fluorobenzyl)oxy]benzoyl}-5-[(4-oxo-1,2,3-benzotriazin-3(4H)-yl)methyl]cyclopentanecarboxylic acid] | 160 | 46 | 18 | 0.61 |
| O=C(O)[C@H]1[C@H](Cn2nnc3ccccc3c2=O)CC[C@@H]1C(=O)c1ccc(OCc2cccc(Cl)c2)cc1 (racemic) [Example 2, (+/−)-(1RS,2RS,5SR)-2-{4-[(3-Chlorobenzyl)oxy]benzoyl}-5-[(4-oxo-1,2,3-benzotriazin-3(4H)-yl)methyl]cyclopentanecarboxylic acid] | 1300 | 140 | 1400 | 4.1 |
| O=C(O)[C@H]1[C@H](Cn2nnc3ccccc3c2=O)CC[C@@H]1C(=O)c1ccc(OCc2ccc(Cl)c(Cl)c2)cc1 (racemic) [Example 3, (+/−)-(1RS,2RS,5SR)-2-{4-[(3,4-Dichlorobenzyl)oxy]benzoyl}-5-[(4-oxo-1,2,3-benzotriazin-3(4H)-yl)methyl]cyclopentanecarboxylic acid] | 1900 | 430 | 810 | 7 |
| O=C(O)[C@H]1[C@H](Cn2nnc3ccccc3c2=O)CC[C@@H]1C(=O)c1ccc(OCC2CCCC2)cc1 (racemic) [Example 4, (+/−)-(1RS,2RS,5SR)-2-[4-(Cyclopentylmethoxy)benzoyl]-5-[(4-oxo-1,2,3-benzotriazin-3(4H)-yl)methyl]cyclopentanecarboxylic acid] | 1300 | 160 | 42 | 1.4 |
| O=C(O)[C@H]1[C@H](Cn2nnc3ccccc3c2=O)CC[C@@H]1C(=O)c1ccc(OCCC2CCCCC2)cc1 (racemic) [Example 5, (+/−)-(1RS,2RS,5SR)-2-[4-(2-Cyclohexylethoxy)benzoyl]-5-[(4-oxo-1,2,3-benzotriazin-3(4H)-yl)methyl]cyclopentanecarboxylic acid] | 1300 | 160 | 360 | 1.8 |
| O=C(O)[C@H]1[C@H](Cn2nnc3ccc(C(F)(F)F)cc3c2=O)CC[C@@H]1C(=O)c1ccc(OCc2ccccc2)cc1 (racemic) [Example 11, (+/−)-(1RS,2RS,5SR)-2-[4-(Benzyloxy)benzoyl]-5-{[4-oxo-6-(trifluoromethyl)-1,2,3-benzotriazin-3(4H)-yl]methyl}cyclopentanecarboxylic acid] | 590 | 23 | 18 | 1.8 |
| O=C(O)[C@H]1[C@H](Cn2nnc3ccc(C(F)(F)F)cc3c2=O)CC[C@@H]1C(=O)c1ccc(OCCCc2ccccc2)cc1 (racemic) [Example 39, (+/−)-(1RS,2SR,5RS)-2-{[4-Oxo-6-(trifluoromethyl)-1,2,3-benzotriazin-3(4H)-yl]methyl}-5-[4-(3-phenylpropoxy)benzoyl]cyclopentanecarboxylic acid] | 9500 | 230 | 640 | 11 |
| O=C(O)[C@H]1[C@H](Cn2nnc3ccc(C(F)(F)F)cc3c2=O)CC[C@@H]1C(=O)c1ccc(OCC2CCCCC2)cc1 (racemic) [Example 40, (+/−)-(1RS,2RS,5SR)-2-[4-(Cyclohexylmethoxy)benzoyl]-5-{[4-oxo-6-(trifluoromethyl)-1,2,3-benzotriazin-3(4H)-yl]methyl}cyclopentanecarboxylic acid] | 180 | 220 | 25 | 1.9 |
| O=C(O)[C@H]1[C@H](Cn2nnc3ccc(C(F)(F)F)cc3c2=O)CC[C@@H]1C(=O)c1ccc(OCCCC2CCCCC2)cc1 (racemic) [Example 56, (+/−)-(1RS,2RS,5SR)-2-{4-(3-Cyclohexylpropoxy)benzoyl}-5-{[4-oxo-6-(trifluoromethyl)-1,2,3-benzotriazin-3(4H)-yl]methyl}cyclopentanecarboxylic acid] | > 40000 | 990 | 1100 | 21 |
| O=C(O)[C@H]1[C@H](Cn2nnc3ccc(C(F)(F)F)cc3c2=O)CC[C@@H]1C(=O)c1ccc(SCc2ccc(Cl)c(Cl)c2)cc1 (racemic) [Example 79, (+/−)-(1RS,2RS,5SR)-2-{4-[(3,4-Dichlorobenzyl)sulphanyl]benzoyl}-5-{[4-oxo-6-(trifluoromethyl)-1,2,3-benzotriazin-3(4H)-yl]methyl}cyclopentanecarboxylic acid] | 9300 | 1100 | 760 | 35 |
| Cc1ccc2nnn(C[C@@H]3CC[C@H](C(=O)c4ccc(OCc5ccccc5)cc4)[C@H]3C(=O)O)c(=O)c2c1 (racemic) [Example 91, (+/−)-(1RS,2RS,5SR)-2-[4-(Benzyloxy)benzoyl]-5-[(6-methyl-4-oxo-1,2,3-benzotriazin-3(4H)-yl)methyl]cyclopentanecarboxylic acid] | 400 | 22 | 26 | 0.86 |
| Cc1cccc(COc2ccc(C(=O)[C@H]3CC[C@@H](Cn4nnc5ccc(C)cc5c4=O)[C@@H]3C(=O)O)cc2)c1 (racemic) [Example 97, (+/−)-(1RS,2RS,5SR)-2-{4-[(3-Methylbenzyl)oxy]benzoyl}-5-[(6-methyl-4-oxo-1,2,3-benzotriazin-3(4H)-yl)methyl]cyclopentanecarboxylic acid] | 4600 | 160 | 1300 | 6.1 |
| Cc1ccc2nnn(C[C@@H]3CC[C@H](C(=O)c4ccc(OCc5cccc(C(F)(F)F)c5)cc4)[C@H]3C(=O)O)c(=O)c2c1 (racemic) [Example 100, (+/−)-(1RS,2SR,5RS)-2-[(6-Methyl-4-oxo-1,2,3-benzotriazin-3(4H)-yl)methyl]-5-(4-{[3-(trifluoromethyl)benzyl]oxy}benzoyl)cyclopentanecarboxylic acid] | 1800 | 150 | 250 | 1.7 |
